How the values were obtained:
[1] = biological target: ATP-binding cassette sub-family C member 2 (Homo sapiens, UniProt Q92887); assay: Inhibition of human MRP2 expressed in dog MDCK2 cells; format: cell-based, MDCK-II; settings: for Activity: human, mdck-ii
[2] = biological target: ATP-dependent translocase ABCB1 (Homo sapiens, UniProt P08183); assay: Inhibition of P-gp in human A2780 cells; format: cell-based; settings: for Activity: human, a2780
[3] = biological target: Multidrug resistance-associated protein 1 (Homo sapiens, UniProt P33527); assay: Inhibition of human MRP1 in human 2008 cells assessed as increase in calcein-AM accumulation; format: cell-based
Multidrug resistance-associated protein 1, sequence (P33527 whole entry): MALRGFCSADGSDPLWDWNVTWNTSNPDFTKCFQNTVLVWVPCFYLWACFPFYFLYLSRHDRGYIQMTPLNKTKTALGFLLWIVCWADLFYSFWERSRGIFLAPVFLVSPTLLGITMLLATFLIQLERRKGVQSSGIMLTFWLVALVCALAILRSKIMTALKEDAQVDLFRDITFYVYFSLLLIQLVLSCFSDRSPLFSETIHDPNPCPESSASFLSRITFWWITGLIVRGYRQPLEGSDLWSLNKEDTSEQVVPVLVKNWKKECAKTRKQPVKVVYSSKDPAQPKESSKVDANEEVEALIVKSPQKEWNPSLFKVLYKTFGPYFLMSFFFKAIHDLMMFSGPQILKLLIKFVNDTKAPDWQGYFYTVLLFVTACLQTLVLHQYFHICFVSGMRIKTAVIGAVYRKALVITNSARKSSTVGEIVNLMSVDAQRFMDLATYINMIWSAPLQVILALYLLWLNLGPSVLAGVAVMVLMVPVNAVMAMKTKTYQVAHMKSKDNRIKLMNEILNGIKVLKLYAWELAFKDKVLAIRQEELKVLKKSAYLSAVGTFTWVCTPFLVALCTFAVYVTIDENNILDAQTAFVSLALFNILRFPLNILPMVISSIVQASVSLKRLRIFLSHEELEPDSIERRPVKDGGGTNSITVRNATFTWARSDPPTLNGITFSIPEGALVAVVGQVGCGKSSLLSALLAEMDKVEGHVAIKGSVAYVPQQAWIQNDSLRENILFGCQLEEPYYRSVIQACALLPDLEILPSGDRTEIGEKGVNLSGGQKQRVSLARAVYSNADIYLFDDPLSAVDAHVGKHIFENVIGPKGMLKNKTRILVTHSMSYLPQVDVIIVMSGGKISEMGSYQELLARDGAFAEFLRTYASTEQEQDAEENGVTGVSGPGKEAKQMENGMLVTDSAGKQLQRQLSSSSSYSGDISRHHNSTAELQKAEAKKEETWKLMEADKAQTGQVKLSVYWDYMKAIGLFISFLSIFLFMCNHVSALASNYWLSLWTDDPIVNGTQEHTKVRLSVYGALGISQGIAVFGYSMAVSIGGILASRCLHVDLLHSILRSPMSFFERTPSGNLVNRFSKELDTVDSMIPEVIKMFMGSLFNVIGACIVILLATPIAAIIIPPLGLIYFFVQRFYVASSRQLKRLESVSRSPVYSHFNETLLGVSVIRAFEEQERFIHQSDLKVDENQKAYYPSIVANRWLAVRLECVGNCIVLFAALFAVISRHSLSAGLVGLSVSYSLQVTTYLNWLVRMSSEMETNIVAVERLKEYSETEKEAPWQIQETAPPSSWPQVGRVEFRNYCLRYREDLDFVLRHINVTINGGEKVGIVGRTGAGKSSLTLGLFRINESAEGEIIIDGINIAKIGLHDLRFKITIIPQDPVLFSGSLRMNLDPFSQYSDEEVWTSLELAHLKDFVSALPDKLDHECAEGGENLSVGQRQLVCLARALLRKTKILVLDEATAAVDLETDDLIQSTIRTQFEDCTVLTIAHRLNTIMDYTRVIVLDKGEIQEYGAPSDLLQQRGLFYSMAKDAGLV

ATP-dependent translocase ABCB1, sequence (P08183 whole entry): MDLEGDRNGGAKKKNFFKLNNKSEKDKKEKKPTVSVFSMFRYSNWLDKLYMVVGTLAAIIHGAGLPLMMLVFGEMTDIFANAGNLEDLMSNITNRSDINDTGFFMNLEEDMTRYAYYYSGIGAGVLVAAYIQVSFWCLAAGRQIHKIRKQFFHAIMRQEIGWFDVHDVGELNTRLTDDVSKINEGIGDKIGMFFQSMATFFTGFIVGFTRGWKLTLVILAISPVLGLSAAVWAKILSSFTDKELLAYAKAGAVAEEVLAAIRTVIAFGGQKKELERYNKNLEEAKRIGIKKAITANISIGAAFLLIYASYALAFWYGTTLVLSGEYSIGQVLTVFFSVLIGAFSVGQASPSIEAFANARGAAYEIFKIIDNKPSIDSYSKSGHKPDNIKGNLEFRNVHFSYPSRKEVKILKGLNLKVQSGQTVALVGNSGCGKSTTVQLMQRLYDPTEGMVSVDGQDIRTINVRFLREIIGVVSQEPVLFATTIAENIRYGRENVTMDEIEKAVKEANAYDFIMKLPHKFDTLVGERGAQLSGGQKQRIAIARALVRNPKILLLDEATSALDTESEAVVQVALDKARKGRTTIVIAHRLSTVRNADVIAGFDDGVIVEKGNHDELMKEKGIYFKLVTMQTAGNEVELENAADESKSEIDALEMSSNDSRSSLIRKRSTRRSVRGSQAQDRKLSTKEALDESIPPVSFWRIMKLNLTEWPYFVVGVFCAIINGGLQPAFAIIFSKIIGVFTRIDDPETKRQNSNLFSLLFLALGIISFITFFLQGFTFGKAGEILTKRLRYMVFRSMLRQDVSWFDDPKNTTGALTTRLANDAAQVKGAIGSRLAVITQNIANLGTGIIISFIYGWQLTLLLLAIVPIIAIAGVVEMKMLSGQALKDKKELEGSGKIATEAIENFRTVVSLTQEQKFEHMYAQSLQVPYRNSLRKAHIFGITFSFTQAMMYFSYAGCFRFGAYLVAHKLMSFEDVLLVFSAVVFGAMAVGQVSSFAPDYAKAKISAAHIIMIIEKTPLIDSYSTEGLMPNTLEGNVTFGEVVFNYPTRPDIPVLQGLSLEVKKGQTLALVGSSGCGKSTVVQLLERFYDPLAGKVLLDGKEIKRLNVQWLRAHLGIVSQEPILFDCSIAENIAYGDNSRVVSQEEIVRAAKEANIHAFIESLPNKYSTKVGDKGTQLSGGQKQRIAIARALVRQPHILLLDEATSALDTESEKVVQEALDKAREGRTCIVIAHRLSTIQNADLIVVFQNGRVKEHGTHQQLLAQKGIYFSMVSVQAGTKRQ
ATP-binding cassette sub-family C member 2, sequence (Q92887 whole entry): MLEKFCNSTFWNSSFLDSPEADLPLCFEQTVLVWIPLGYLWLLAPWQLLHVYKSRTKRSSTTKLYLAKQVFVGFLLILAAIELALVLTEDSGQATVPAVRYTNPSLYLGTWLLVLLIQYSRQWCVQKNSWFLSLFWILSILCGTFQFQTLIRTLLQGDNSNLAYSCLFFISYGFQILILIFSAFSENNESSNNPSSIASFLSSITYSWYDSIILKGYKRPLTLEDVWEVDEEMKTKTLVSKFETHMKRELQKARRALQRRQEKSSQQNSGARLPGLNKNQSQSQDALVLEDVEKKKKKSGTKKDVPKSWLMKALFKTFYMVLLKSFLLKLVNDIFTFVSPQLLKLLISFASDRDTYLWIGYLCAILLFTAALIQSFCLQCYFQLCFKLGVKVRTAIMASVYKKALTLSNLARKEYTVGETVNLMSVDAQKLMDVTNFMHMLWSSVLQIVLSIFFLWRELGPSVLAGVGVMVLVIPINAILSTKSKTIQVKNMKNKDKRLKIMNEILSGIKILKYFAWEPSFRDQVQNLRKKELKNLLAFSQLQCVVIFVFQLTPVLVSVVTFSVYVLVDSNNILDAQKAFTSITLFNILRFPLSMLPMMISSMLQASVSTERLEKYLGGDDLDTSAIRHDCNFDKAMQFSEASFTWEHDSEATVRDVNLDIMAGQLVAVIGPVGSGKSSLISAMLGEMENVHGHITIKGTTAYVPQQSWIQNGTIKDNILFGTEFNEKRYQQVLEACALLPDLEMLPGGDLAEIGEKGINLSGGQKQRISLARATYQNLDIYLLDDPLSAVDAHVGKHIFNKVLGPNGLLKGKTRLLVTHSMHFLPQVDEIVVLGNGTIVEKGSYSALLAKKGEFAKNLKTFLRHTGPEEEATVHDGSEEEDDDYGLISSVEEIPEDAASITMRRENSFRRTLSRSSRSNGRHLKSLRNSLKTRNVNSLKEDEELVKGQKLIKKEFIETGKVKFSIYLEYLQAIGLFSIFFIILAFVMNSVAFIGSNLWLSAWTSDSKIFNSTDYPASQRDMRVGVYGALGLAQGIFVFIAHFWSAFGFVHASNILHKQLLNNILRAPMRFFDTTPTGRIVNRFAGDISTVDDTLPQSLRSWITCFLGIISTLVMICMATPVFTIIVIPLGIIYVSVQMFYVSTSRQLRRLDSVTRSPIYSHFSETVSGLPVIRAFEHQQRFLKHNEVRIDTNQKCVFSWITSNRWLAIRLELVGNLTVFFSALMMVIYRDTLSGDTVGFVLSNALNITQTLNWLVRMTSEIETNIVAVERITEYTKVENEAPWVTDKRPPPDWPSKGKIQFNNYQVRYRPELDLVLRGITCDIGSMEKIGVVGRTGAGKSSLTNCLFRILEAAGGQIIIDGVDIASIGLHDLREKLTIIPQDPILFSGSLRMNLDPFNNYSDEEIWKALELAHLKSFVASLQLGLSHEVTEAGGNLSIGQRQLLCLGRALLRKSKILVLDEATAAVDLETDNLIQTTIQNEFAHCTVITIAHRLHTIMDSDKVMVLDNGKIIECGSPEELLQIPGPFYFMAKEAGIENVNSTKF

Row | SMILES | Activity [1] | IC50 [2] | IC50 [1] | Activity [2] | Activity [3]
1 | Nc1nc2sc3c(c2c(=O)s1)CCCC3 | Not Active | > 200 µM |  |  | 
2 | CCOC(=O)c1c(NC(=S)Nc2ccc(C(=O)O)cc2)sc2c1CCCC2 |  |  | > 200 µM | Not Active | 
3 | O=C(Nc1nc2sc3c(c2c(=O)s1)CCCC3)c1ccccc1 | Not Active |  |  | Not Active | 
4 | O=C(O)c1ccc(Nc2nc3sc4c(c3c(=O)s2)CCCC4)cc1 |  |  | 21.5 µM | Not Active | Active
5 | CN(C)C(=O)CCSC(SCCC(=O)[O-])c1cccc(/C=C/c2ccc3ccc(Cl)cc3n2)c1.[Na+] (stereo not drawn) |  |  | 20.7 µM | Not Active | 
6 | COc1ccc2c(c1)c(CC(=O)O)c(C)n2C(=O)c1ccc(Cl)cc1 [INDOMETHACIN] |  |  | 235 µM | Not Active | 

From ChEMBL document CHEMBL1140042, “A 4-aminobenzoic acid derivative as novel lead for selective inhibitors of multidrug resistance-associated proteins” (Bioorg Med Chem Lett, 2008)
